# Assays:
# [1] = system: HTLV-III/LAV; test: Inhibition of HTLV-III/LAV cytopathic effect in MT-2 cells (visual inspection); type: cell-based; settings: for % Apparent CPE (destroyed cells / total cells scored): MT-2 cells, day 7 post-infection
# [2] = system: retroviruses, e.g., murine leukemia virus and HTLV III/LAV virus; test: Antiviral activity against retroviruses (general statement); type: cell-based; settings: murine leukemia virus and HTLV III/LAV virus (the AIDS virus)
# [3] = system: MT-2 cells; test: Viability of HTLV-III/LAV-infected MT-2 cells (trypan blue exclusion); type: cell-based; settings: Homo sapiens, MT2, 168 h, day 7 post-infection, read-out: % Viable Cells (cells that excluded trypan blue / cells scored)
# [4] = system: Moloney Murine Leukemia Virus; test: Antiviral screening against Moloney Murine Leukemia Virus (M-MuLV) by XC-assay (plaque reduction, SC-1 cells); type: cell-based; settings: SC1, SC-1/XC cells, Reed-Muench Method, read-out: ID50 (median inhibitory dose, virus plaque number)
# Text: Assay Procedure For Antiviral […] Against Moloney Murine Leukemia Virus (M-MuLV) By XC-Assay: The XC assay system is an indirect method for quantitation of murine-leukemia virus (MULV) originally described by […] et al, Proc. Nat'l. Acad Sci., 63, 753-758, (1969) and modified by W. Rowe et al, Virology, 42, 1136-1139, (1970). This test is based on the development of syncytial changes in the XC cell line when it is co-cultivated with mouse fibroblast cells (SC-1 cells) productively infected with MULV. The XC cell line was derived from a rat tumor induced by the Prague strain of Rous Sarcoma Virus (RSV) (J. Svobada et al, Folia Biol., 9, 77-81, […]). […] The following day, the cells were inoculated with 0.5 mL of a virus dilution containing 25 μg/mL of DEAE-dextran. […] The virus inoculum was then removed and replaced with 5mL of medium containing appropriate concentration of the test compound (two dishes/concentration). […] The medium (with or without the test compound) was changed at 48 hours. Five days after virus inoculation, the culture fluid was decanted and the cells were irradiated with a "GE" germicidal bulb for 30 seconds (60 ergs/mm^2 /sec UV-light). […] Virus plaques (i.e., areas of the cell sheet containing syncytial cells or focal masses of multinucleated giant cells) were counted using an inverted microscope.
# [5] = Water solubility (compared with AZT); type: physicochemical; settings: compared with 3'-azido-3'-deoxythymidine (AZT)
# [6] = system: HTLV-III/LAV; test: Fluorescent assay of inhibition of HTLV-III/LAV in MT-2 cells (monoclonal antibody αp18); type: cell-based; settings: day 7 post-infection
# [7] = system: HTLV-III/LAV virus; settings: Mitsuya and Broder, supra; cited from earlier work
structure (smiles),measurement,setting,value
"Nc1ccn([C@H]2C=C[C@@H](CO)O2)c(=O)n1 [2',3'-dideoxycytidin-2'-ene]",% Apparent CPE (destroyed cells / total cells scored),[1]; 0.5 μM,90 ± 0.0%
same,% Apparent CPE (destroyed cells / total cells scored),[1]; 1.0 μM,0.5 ± 0.5%
same,"effective dose compared with 2',3'-dideoxycytidine","[1]; HTLV-III/LAV infection in vitro, conclusion from Table 2 data","effective dose falls in the same range as 2',3'-dideoxycytidine"
same,antiviral activity against HTLV-III/LAV infection in vitro,[1]; conclusion from Table 2 data,has antiviral activity against the HTLV-III/LAV infection in vitro
same,antiviral activity against retroviruses,[2],has antiviral activity against retroviruses
same,viability at 0.5 µM,[3],22%
same,viability at 1 µM,[3],90%
same,IC50,[4],3.7 µM
same,water solubility,[5],much better water solubility than that of 3'-azido-3'-deoxythymidine (AZT)
same,% Fluoresence (fluorescent cells / total cells scored),[6]; 0.5 μM,5.6 ± 5.5%
same,% Fluoresence (fluorescent cells / total cells scored),[6]; 1.0 μM,1.1 ± 0.1%
"Nc1ccn([C@H]2CC[C@@H](CO)O2)c(=O)n1 [2',3'-dideoxycytidine, reference compound]",% Apparent CPE (destroyed cells / total cells scored),[1]; 0.5 μM,40 ± 10%
same,% Apparent CPE (destroyed cells / total cells scored),[1]; 1.0 μM,1.0 ± 0.0%
same,viability at 0.5 µM,[3],75%
same,viability at 1 µM,[3],96%
same,potency against HTLV-III/LAV virus in culture,[7],known potent compound against HTLV-III/LAV virus in culture
same,IC50,[4],4 µM
same,% Fluoresence (fluorescent cells / total cells scored),[6]; 0.5 μM,4.3 ± 0.3%
same,% Fluoresence (fluorescent cells / total cells scored),[6]; 1.0 μM,0.2 ± 0.1%

# Source: patent publication US6001818A, “Use of 2',3'-dideoxycytidin-2'-ene (2'- ,3'-dideoxy-2'3'-didehydrocytidine) in treating patients infected with retroviruses” (Yale University, priority 1991, dated 1999)
